Data from patent US9803223B2, “Coryneform bacterium transformant with improved aniline productivity and process for producing aniline using the same” (RESEARCH INSTITUTE OF INNOVATIVE TECHNOLOGY FOR THE EARTH, priority 2013, dated 2017).
Entries after “also recorded” stand apart in the source; their conditions may differ.

Key:
[1] = test system: Corynebacterium glutamicum R; test: Influence of aniline addition on aerobic growth; type: cell-based; settings: for growth of Corynebacterium glutamicum: aerobic culture 33° C., OD610
Protocol: Corynebacterium glutamicum R was applied to A agar medium (2 g of (NH2)2CO3 7 g of (NH4)2SO4, 0.5 g of KH2PO4, 0.5 g of K2HPO4, 0.5 g of MgSO4.7H2O, 1 mL of 0.06% (w/v) Fe2SO4.7H2O+0.042% (w/v) MnSO4.2H2O, 1 mL of 0.02% (w/v) biotin solution, 2 mL of 0.01% (w/v) thiamin solution, 2 g of yeast extract, 7 g of vitamin assay casamino acid, 40 g of glucose, and 15 g of agar were suspended in 1 L of distilled water) and was left stand in the dark at 33° C. for 15 hours.
An inoculation loop of the Corynebacterium glutamicum R grown on a plate as above was inoculated into a test tube containing 10 mL of A liquid medium (2 g of (NH2)2CO3 7 g of (NH4)2SO4, 0.5 g of KH2PO4, 0.5 g of K2HPO4, 0.5 g of MgSO4.7H2O, 1 mL of 0.06% (w/v) Fe2SO4.7H2O+0.042% (w/v) MnSO4.2H2O, 1 mL of 0.02% (w/v) biotin solution, 2 mL of 0.01% (w/v) thiamin solution, 2 g of yeast extract, 7 g of vitamin assay casamino acid, and 40 g of glucose were suspended in 1 L of distilled water) and was aerobically cultured with shaking at 33° C. for 15 hours.
(§1) The Corynebacterium glutamicum R grown in the above conditions was inoculated into 10 mL of A liquid medium in such a way that the initial bacterial cell concentration would be OD610=0.1, aniline was added at the same time in such a way that the final concentration would be 0, 20, 40, 60, or 80 mM, and aerobic culture was performed with shaking at 33° C. The growth of the bacterial cells was determined by absorbance measurement at OD610.
The vertical axis of FIG. 3 indicates OD610.

Escherichia coli HST02 = test: Growth inhibition experiment in aerobic culture, influence of aniline; type: cell-based; settings: for growth of Escherichia coli HST02: aerobic culture 37° C., OD610
Protocol: A growth inhibition experiment in aerobic culture was performed to examine the influence of aniline on Escherichia coli.
Escherichia coli HST02 was applied to LB agar medium (1% polypeptone, 0.5% yeast extract, 0.5% NaCl and 1.5% agar) and was left stand in the dark at 37° C. for 15 hours.
An inoculation loop of the Escherichia coli HST02 grown on a plate as above was inoculated into a test tube containing 10 mL of LB liquid medium (1% polypeptone, 0.5% yeast extract, and 0.5% NaCl), and aerobic culture was performed with shaking at 37° C. for 13 hours.
as §1, with “The Escherichia coli HST02” for “The Corynebacterium glutamicum R”, “into 100” for “into 10”, “of LB” for “of A”, “at 37°” for “at 33°”, “OD610. […] The vertical axis of FIG. 2 indicates OD610.” for “OD610.”

Question: With Nc1ccccc1 [aniline] as the compound, how does the “growth of Corynebacterium glutamicum” value ([1]; 40 mM aniline) read?
Answer: The value was “hardly affected”.

Question: What about the “growth of Corynebacterium glutamicum” value ([1]; 60 mM aniline) of the same compound?
Answer: Its value is “able to grow”.

Question: What about the “growth of coryneform bacterium” value ([1]; aniline level increased up to 60 mM, aerobic culture) of the same compound?
Answer: Its value is “can grow”.

Question: What about the “growth of Escherichia coli HST02” value (Escherichia coli HST02; 20 mM aniline) of the same compound?
Answer: The value was “notably inhibited”.

Question: What about the “growth of Escherichia coli HST02” value (Escherichia coli HST02; 40 mM aniline) of the same compound?
Answer: Its value is “significantly inhibited; also recorded: significantly affected”.

Question: What about the “growth of Escherichia coli HST02” value (Escherichia coli HST02; 60 mM aniline) of the same compound?
Answer: Its value is “completely inhibited”.

Question: What about the “growth of Escherichia coli” value (Escherichia coli HST02; aniline level of 20 mM or higher, aerobic culture) of the same compound?
Answer: The value was “greatly affected”.
